Reference: article PMC7367873, “Dissecting the sequence determinants for dephosphorylation by the catalytic subunits of phosphatases PP1 and PP2A” (Nature Communications, 2020)

Tested on: GFP-14-3-3β and its binding proteins
Assay: GFP-14-3-3β co-IP with LC-MS/MS label-free quantification, untreated versus PP1c-treated
Set-up: species or system human

## PP1c: recombinant catalytic subunit of PP1
1 µM recombinant PP1c, 1 h at 30 °C, FDR 0.05, of 108 interacting proteins, three replicates
  number of proteins significantly dissociating from 14-3-3: 56 proteins
log2 difference, pairwise comparison PP1 vs untreated, label-free quantification, 3 replicates each
  Difference (log2), PP1 vs untreated: 5.428
Mapped onto phosphoproteomic dataset, of 56 proteins
  number of dissociating proteins with at least one PP1c-regulated phosphorylation site: 35 proteins
Recombinant PP1c
  14-3-3-protein interactions disrupted: 52%
